Results: US20220356525A1, “METHODS OF DETERMINING WHETHER PATIENTS SUFFERING FROM ACUTE MYELOID LEUKEMIA WILL ACHIEVE A RESPONSE TO AN MYC-TARGETING THERAPY” (INSERM (INSTITUT NATIONAL DE LA SANTÉ ET DE LA RECHERCHE …, priority 2019, published 2022)

Key:
CDK7 = CDK7 (Homo sapiens, UniProt P50613); conditions: Table 1, Kwiatkowski et al. (2014); cited from earlier work
[1] = test system: AML cell lines (KG1a, IMS-M2, and U937); experiment: AML cell line sensitivity to BET/CDK7 inhibitors in standard versus nutrient-deprived (folic acid-starved) media; type: cell-based, human; conditions: for AML cell line sensitivity: folic acid withdrawal
Excerpt: BET proteins interact with acetylated histones in active regulatory domains (promoters and enhancers) and promote RNA PolII activity. Despite the general nature of this mechanism, BET inhibitors have shown selective effects on gene expression through suppression of […] and MYC-related transcriptional programs (8, 11, 12). Two cohorts of AML patients (TCGA-LAML, n=198 and GSE14468, n=526) were queried with multiple gene sets related to MYC transcriptional programs as well as vitamin, amino acid, and nucleotide metabolism using single sample Gene Set Enrichment Analysis (ssGSEA). Correlation between gene sets was queried across all patients from each cohort to pinpoint potential crosstalk between active MYC programs and specific metabolic pathways (data not shown).
(§1) To investigate further the relationship between folic acid starvation and increased BET inhibitor resistance, we compiled a panel of AML cell lines harboring diverse genetic alterations. […] The effect of folic acid removal was also evaluated in cell lines treated either with a second BET inhibitor, JQ1, or with THZ-1, a covalent inhibitor of CDK7, another key factor in transcriptional elongation at super-enhancer regions and a strong inhibitor of MYC expression (data not shown). […] Therefore, we studied selective suppression of BRD4 by short hairpin RNA (shRNA) in two AML cell lines.

MLL-AF9-driven AML cells = experiment: MLL-AF9-driven AML mouse models treated with JQ1; type: in vivo, mice
Experimental: (E) MLL-AF9-transformed GFP-positive granulomonocytic progenitors (Sca-1^−/c-KIT^+/CD16/32^+/CD34^+/MPO^+) from homozygous wild-type […], or heterozygous (+/−) and homozygous (−/−) Mthfr knockout mice transplanted into sublethally-irradiated recipient mice before treatment with vehicle or 50 mg/kg JQ1 for 7 days. Proportion of GFP-positive MLL-AF9 leukemic cells in bone marrow from five mice per group. p-value by Mann-Whitney test. n.s, nonsignificant (p>0.05). Error bars represent mean±SD.
The French National Committee on Animal Care reviewed and approved all mouse experiments. Sample size was influenced by historical penetrance and consistency of MLL-AF9-driven in vivo models. For the Mthfr knockout AML mouse model, BALB/cJ mice were purchased from Charles River Laboratories. Each recipient mouse was transplanted with transduced Scal^−/c-Kit^+ myeloid progenitors sorted from the total bone marrow of three donor mice. Approximatively two months post-transplantation, sick mice were euthanized and bone marrow harvested before flow-based sorting of MLL-AF9-positive granulo-monocytic bone marrow progenitor population (GFP^+/Sca-1^−/c-Kit^+/Cd16/32^+/Cd34^+) and PCR-based confirmation of Mthfr knockout status. 0.2×10^6 MLL-AF9-positive Mthfr^+/+, Mthfr^+/−, and Mthfr^−/− cells were then reinjected into sublethally-irradiated secondary recipient mice treated daily by intraperitoneal injection with 50 mg/kg JQ1 (10% DMSO+90% G5W).
For folate starvation experiments, 5-week old male C57BL/6J mice were given regular or folate-deficient casein-reconstituted diet (Safe-Diets) for 4 weeks before sublethal irradiation (350cGy) and injection with 0.2×10^6 MLL-AF9-positive L-GMP cells before treatment with 35 mg/kg or 50 mg/kg JQ1 (10% DMSO+90% G5W) for 7 days. For Mthfr knockdown experiments, MLL-AF9-positive L-GMP cells were infected with a control or two Mthfr-directed shRNAs cloned into an MSCV-miRE-SV40-eBFP vector modified from the MSCV-miRE_shBRD9_561-SV40-GFP vector (Addgene, #75139) by substitution of the GFP cassette with an eBFP fluorescent marker. 0.2×10^6 infected cells were injected into sublethally-irradiated 5-week old C57BL/6J recipient mice. Additional information is provided in the supplementary material and methods section.

OCI-AML2 cells = experiment: Pooled CRISPR/Cas9 epigenetic screen with JQ1; type: cell-based, human
Experimental: OCI-AML2 cells were seeded into six-well plates at a density of 3×10^6 cells per well and transduced at MOI 0.2. […] 24 hours post-transduction, cells were replated into puromycin-containing media. A sample was collected at 48 hours post-puromycin to confirm library coverage in the transduced population. Transduced cells were expanded in puromycin for 10 days before drug, when the transduced population was split into vehicle (DMSO) and JQ1 conditions and maintained for two weeks. Deep sequencing was performed by Hudson Alpha Institute for Biotechnology on an Illumina Nextseq platform (75 bp, single-ended) to identify differences in library composition. Additional information is provided in the supplementary material and methods section.

BRD4 = BRD4 (Homo sapiens, UniProt O60885); conditions: previous studies; cited from earlier work
[2] = test system: MLL-translocated primary patient samples with AML; experiment: OTX015 sensitivity of primary AML patient samples; type: cell-based, human
Experimental: (§2) Error bars represent mean±SD.
as §1
Previous studies have extensively characterized two common MTHFR genetic variants, C677T and A1298C, encoding MTHFR enzyme variants with reduced activity, resulting in hyperhomocysteinemia in human carriers. In particular, the homozygous variant 677 TT and 1298 CC genotypes are present in ˜10% of Caucasians and display only 30% and 60% of the homozygous wild-type 677 CC and 1298 AA enzyme activities, respectively (16, 17). […] Five KG1a clones either 1) wild-type 677 CC and 1298 AA, 2) heterozygous 677 CT or 1298 AC, or 3) homozygous 677 TT or 1298 CC, were selected and genotyped via allelic discrimination technique (FIG. 1A). […] Finally, we engineered a tractable MLL-AF9-driven mouse model of AML in which Mtfhr genotype status was either homozygous wild-type, heterozygous or homozygous knockout.

[3] = test system: CRISPR/Cas9-edited KG1a clones; experiment: OTX015 sensitivity and colony formation of CRISPR/Cas9-edited KG1a clones with MTHFR variants; type: cell-based, human
Excerpt: Error bars represent mean±SD. Experiment performed at least two independent times.
as §2
Additional information is provided in the supplementary material and methods section.
Finally, we engineered a tractable MLL-AF9-driven mouse model of AML in which Mtfhr genotype status was either homozygous wild-type, heterozygous or homozygous knockout.

IMS-M2 and U937 cells [4] = conditions: 50 μM 5-CH3 THF; MTHFR-directed shRNAs
U937 cell colonies = experiment: Colony formation assay with OTX015 at reduced folic acid; type: cell-based, human; conditions: 125-fold decrease in folic acid (1 mg/L to 0.008 mg/L)
Experimental: as §1

AML cells = experiment: Apoptosis in response to OTX015 upon folic acid withdrawal; type: cell-based, human
Experimental: as §1

IMS-M2 AML cells = experiment: OTX015 sensitivity after shRNA knockdown of folate cycle enzymes; type: cell-based, human; conditions: for increase of IC50 of OTX015: average
[5] = test system: AML cell lines: KG1a, OCI-AML2, and U937; experiment: OTX015 response and colony number after MTHFR-directed shRNAs in AML cell lines; type: cell-based, human
Excerpt: Dietary folic acid undergoes several conversion steps into intermediate metabolites before generation of 5,10-methylene-THF (5,10-CH2 THF). 5,10-CH2 THF is then either reduced in the folate cycle or oxidized in the formate-producing tetrahydrofolate salvage cycle, depending on cellular needs. Despite the fact that folic acid can ultimately be processed through these two interconnected pathways, we observed in our previous ssGSEA analyses that active MYC gene signatures were highly correlated with activation of tetrahydrofolate salvage cycle, but not with folate cycle-related gene sets (data not shown). […] Five central enzymes control the multi-step conversion of dietary folate into 5,10-methylene-THF (5,10-CH2 THF) before its reduction to 5-methyl-THF (5-CH3 THF) and recycling to THF. […] Finally, we abrogated Mthfr expression in primary murine MLL-AF9-driven AML cells using two Mthfr-directed shRNAs before treatment of engrafted mice with JQ1 (data not shown).

U937 cells = experiment: OTX015 sensitivity after EED, EHMT1, SETDB1 hairpins; type: cell-based, human; conditions: hairpins reducing EED, EHMT1 and SETB1 protein
[6] = test system: MYC transcriptional program; experiment: RNA sequencing and gene set enrichment after OTX015 for 24 hours; type: cell-based, human; conditions: IMS-M2 and U937; irrespective of folate status; FDR<0.25
IMS-M2 and U937 cells [7] = experiment: OTX015 resistance after SPI1 knockdown with folate withdrawal or MTHFR suppression; type: cell-based, human; conditions: SPI1 depletion; folate cycle disturbed or MTHFR suppressed
Excerpt: To explore functionally whether SPI1 transcriptional program activation induced by folate cycle disruption promotes resistance to BRD4 inhibition, we knocked down SPI1 in IMS-M2 and U937 cells before folate withdrawal or MTHFR suppression (FIGS. 5F and 5G).

[8] = test system: MLL-AF9-transformed Mthfr knockout primary murine cells; experiment: OTX015 resistance after Spi1 knockdown in Mthfr knockout cells; type: cell-based
[9] = test system: KG1a, U937 and IMS-M2 cells; experiment: OTX015 sensitivity with SAH supplementation; type: cell-based, human
Excerpt: We next used metabolism profiling to characterize the effect of folate pathway alteration on global cell metabolism in U937 cells. […] ShRNA-mediated MTHFR depletion induced a similar increase in SAH levels as that observed upon folate withdrawal in AML cell lines U937 and IMS-M2 (data not shown).

[10] = folic acid-starved media versus standard media, panel of AML cell lines

CDK7, sequence (P50613 whole entry): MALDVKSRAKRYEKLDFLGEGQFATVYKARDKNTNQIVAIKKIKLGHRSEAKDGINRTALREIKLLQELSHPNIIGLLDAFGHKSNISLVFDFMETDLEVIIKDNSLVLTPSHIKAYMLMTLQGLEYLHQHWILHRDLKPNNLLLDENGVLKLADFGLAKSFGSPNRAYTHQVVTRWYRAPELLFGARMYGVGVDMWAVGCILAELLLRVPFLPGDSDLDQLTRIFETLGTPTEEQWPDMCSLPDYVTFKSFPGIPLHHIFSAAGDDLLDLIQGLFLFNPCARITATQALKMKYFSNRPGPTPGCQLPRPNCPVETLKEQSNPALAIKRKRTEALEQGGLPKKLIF
CDK7, sequence (P51946 whole entry partner): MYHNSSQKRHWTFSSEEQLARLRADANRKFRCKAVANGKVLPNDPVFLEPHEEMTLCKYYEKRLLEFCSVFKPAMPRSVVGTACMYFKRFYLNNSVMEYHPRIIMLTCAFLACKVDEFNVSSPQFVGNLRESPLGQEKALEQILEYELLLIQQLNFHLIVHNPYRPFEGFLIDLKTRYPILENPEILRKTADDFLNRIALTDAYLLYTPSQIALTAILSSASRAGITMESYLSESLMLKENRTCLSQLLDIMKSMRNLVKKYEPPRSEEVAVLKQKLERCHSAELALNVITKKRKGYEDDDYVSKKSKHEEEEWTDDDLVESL

SMILES: CC(C)CC(=O)Nc1[nH]nc2c1CN(C(=O)C1CCN(C)CC1)C2(C)C [PHA-793887]
- inhibitory activity toward CDK7 relative to other CDKs (CDK7): lower inhibitory activity toward CDK7 than toward at least one other CDK

SMILES: CN1CC[C@H](c2c(O)cc(O)c3c(=O)cc(-c4ccccc4Cl)oc23)[C@H](O)C1 [flavopiridol]
- inhibitory activity toward CDK7 relative to other CDKs (CDK7): lower inhibitory activity toward CDK7 than toward at least one other CDK

SMILES: CC[C@H](CO)Nc1nc(NCc2ccccc2)c2ncn(C(C)C)c2n1 [Roscovitine]
- inhibitory activity toward CDK7 relative to other CDKs (CDK7): lower inhibitory activity toward CDK7 than toward at least one other CDK

SMILES: CN(C)C/C=C/C(=O)Nc1ccc(C(=O)Nc2cccc(Nc3ncc(Cl)c(-c4c[nH]c5ccccc45)n3)c2)cc1 [THZ-1]
- AML cell line sensitivity [1]: significantly dampened

SMILES: Cc1sc2c(c1C)C(c1ccc(Cl)cc1)=N[C@@H](CC(=O)OC(C)(C)C)c1nnc(C)n1-2 [JQ1, tert-butyl 2-[(9S)-7-(4-chlorophenyl)-4,5,13-trimethyl-3-thia-1,8,11,12-tetrazatricyclo[8.3.0.02,6]trideca-2(6),4,7,10,12-pentaen-9-yl]acetate]
- AML cell line sensitivity [1]: significantly dampened
- leukemic burden (MLL-AF9-driven AML cells; animals transplanted with Mthfr-depleted (shRNA) blasts, JQ1 treatment): not significantly decreased
- sensitivity of leukemic burden to JQ1 (MLL-AF9-driven AML cells; control shRNA counterparts): striking sensitivity
- sensitivity to JQ1 (GFP-positive MLL-AF9 leukemic cells in bone marrow) (MLL-AF9-driven AML cells; loss of a single copy of Mthfr, 50 mg/kg JQ1 for 7 days): sufficient to attenuate sensitivity
- anti-leukemic activity (MLL-AF9-driven AML cells; mice fed no folate diet versus regular diet): markedly attenuated
- overall survival after JQ1 treatment (MLL-AF9-driven AML cells; mice injected with Mthfr-depleted cells versus control leukemic cells): significantly shorter
- effect of gene knockout on cells treated with JQ1 (OCI-AML2 cells; knockout of EED, EIMT1 and SETDB1, 2 weeks): rescued cells from JQ1
- effect of gene knockout on cells treated with JQ1 (OCI-AML2 cells; knockout of KDMIA, JMJDIC and KDM3B): enhanced cell sensitivity to JQ1
- inhibition of BRD4 (BRD4): potently inhibited

SMILES: CN1c2c(nc(N)[nH]c2=O)NCC1CNc1ccc(C(=O)N[C@@H](CCC(=O)O)C(=O)O)cc1 (stereo partly drawn) [5-CH3 THF, 5-methyltetrahydrofolate]
- effect on response to OTX015 (IC90, 5 days) ([2]; 50 μM 5-CH3 THF, three patient samples with altered MTHFR genotype): sensitized to OTX015
- effect on response to OTX015 (fold change of IC50, 5 days) ([3]; 50 μM 5-CH3 THF, 677 TT or 1298 CC clones versus wild-type): substantially enhanced response to OTX015
- effect on cytotoxicity of OTX015 (fold change of IC50, 5 days) (IMS-M2 and U937 cells [4]): restored a cytotoxic effect of OTX015

SMILES: Cc1sc2c(c1C)C(c1ccc(Cl)cc1)=N[C@@H](CC(=O)Nc1ccc(O)cc1)c1nnc(C)n1-2 [OTX015]
- resistance to OTX015 ([1]; folic acid starvation, KG1a, IMS-M2, U937): consistently enhanced resistance
- area under curve (AUC) [1, 10]: significantly increased
- half-maximal inhibitory concentration (IC50) [1, 10]: significantly increased
- resistance to OTX015 ([1]; phenylalanine and histidine starvation): increased resistance to OTX015 in a subset of AML cell lines
- number of colonies in presence of OTX015 (U937 cell colonies): significantly increased the number of U937 cell colonies
- apoptosis in response to OTX015 (AML cells): decrease in apoptosis
- response to OTX015 (IC90, 5 days) ([2]; 16 samples, homozygous and compound heterozygous MTHFR genotype versus wild-type and heterozygous): responded significantly less
- IC50 ([2]; folic acid withdrawal): markedly increased
- increase of IC50 of OTX015 (IMS-M2 AML cells; hairpins targeting DHFR and DHFR2): 3 fold
- increase of IC50 of OTX015 (IMS-M2 AML cells; hairpins targeting MTHFR): 7 fold
- response to OTX015 (IMS-M2 AML cells; hairpins targeting SHMT1 and MTR): did not significantly alter response
- response to increasing doses of OTX015 ([5]; MTHFR suppression): substantially weakened the response
- colony number upon OTX015 treatment ([5]; MTHFR-depleted versus shCT-infected cells): significant increase in colony number
- number of colonies upon OTX015 treatment ([3]; 677 TT and 1298 CC homozygous versus wild-type clones, 1 μM OTX015): substantially higher
- OTX015 sensitivity (U937 cells): markedly alleviated OTX015 sensitivity
- enrichment of MYC gene sets in genes suppressed by OTX015 [6]: highly enriched
- OTX015 resistance (IMS-M2 and U937 cells [7]): significantly reduced OTX015 resistance
- resistance to OTX015 [8]: abrogated resistance to OTX015

SMILES: Nc1ncnc2c1ncn2[C@@H]1O[C@H](CSCC[C@H](N)C(=O)O)[C@@H](O)[C@H]1O [SAH, S-adenosylhomocysteine]
- cytoprotective effect of SAH against OTX015 ([9]; methionine depleted 300-fold, IMS-M2 cells): enhanced the cytoprotective effect of SAH against OTX015
- resistance to OTX015 with SAH ([9]; methionine depleted, U937 and KG1a cells): even greater resistance to OTX015 than folate restriction alone
